This assay relates to T1, Ensifer sp. DA6 NHase.
T1 construct: gene nthA; NHase gene cluster (alpha, beta, accessory) in pET28a, E. coli Rosetta (DE3), N-terminal 6xHis-tag, Ni-NTA purified; cobalt type; accessory protein not detected on SDS-PAGE; forward primer encodes MSEHHHG; alpha motif VCTLCSC; with Nitrile hydratase accessory protein
Description: HPLC, Michaelis-Menten non-linear regression. The class given is biochemical. As to conditions: 50 mmol/L PBS pH 7.0, 45 °C, cobalt enzyme, 25-1,000 mg/L substrate. The text has this:
HPLC, Michaelis-Menten non-linear regression on Ensifer sp.

The structures appear in SMILES notation.

As to `C/C(=N\C#N)N(C)Cc1ccc(Cl)nc1` [ACE, N-[(6-chloro-3-pyridyl)methyl]-N′-cyano-N-methylacetamidine], the Km (60 min) came out at 8.16 mM.

As for `CC(c1ccc(C(F)(F)F)nc1)S(C)(=O)=NC#N` (centres unmarked) [SUL, [N-(methyloxido{1-[6-(trifluoromethyl)-3-pyridinyl]ethyl}-λ^4-sulfanylidene)cyanamide]], the Michaelis constant (Km) (30 min, stereoisomer mixture) was determined as 7.93 mM.

What is called Km is the concentration of substrate that gives half-maximal velocity.

The values above are taken from PMC12646544, “Bioremediation of acetamiprid and sulfoxaflor co-contamination by Ensifer sp. DA6 and characterization of a novel nitrile hydratase involved” (Frontiers in Microbiology, 2025).
